Values of other authors as cited in patent US20240390444A1, “COMPOSITIONS AND METHODS LOWERING GLYCEMIC RESPONSE TO IMPROVE SLEEP QUALITY AND/OR SUBSEQUENT BEHAVIOURAL OUTCOMES” (SOCIETE DES PRODUITS NESTLE S.A., priority 2021, published 2024).

Settings: 12.5 mg DNJ in capsule, co-ingestion with maltodextrin

OC[C@H]1NC[C@H](O)[C@@H](O)[C@@H]1O [DNJ, 1-deoxynojirimycin]
reduction of PPGR: 14%
